Test results published in the NIST ThermoML archive (doi:10.1016/j.jct.2010.09.008).
Numbers after ± are expanded uncertainties.

Columns and labels:
[1] = relative permittivity at zero frequency (dimensionless); xn = mol fraction of the nth substance listed; details: 101.3 kPa, Liquid, AC Method
[2] = xn = mol fraction of the nth substance listed; details: 101.3 kPa, Liquid, Vibrating tube method
[3] = 101.33 kPa, Liquid, Vibrating tube method
[4] = relative permittivity at zero frequency (dimensionless); details: 101.33 kPa, Liquid, AC method

COCCOCCOC [2,5,8-trioxanonane] + CCCCCCC
Details	mass density [kg/m3]	relative permittivity at zero frequency
[1], 288.15 K, x2 = 0.0492	–	7.25 ± 0.15
[1], 288.15 K, x2 = 0.0982	–	6.84 ± 0.14
[1], 288.15 K, x2 = 0.1991	–	6.04 ± 0.12
[1], 288.15 K, x2 = 0.3006	–	5.3 ± 0.11
[1], 288.15 K, x2 = 0.398	–	4.65 ± 0.09
[1], 288.15 K, x2 = 0.4977	–	4.05 ± 0.08
[1], 288.15 K, x2 = 0.5854	–	3.58 ± 0.07
[1], 288.15 K, x2 = 0.7026	–	3.02 ± 0.06
[1], 288.15 K, x2 = 0.801	–	2.61 ± 0.05
[1], 288.15 K, x2 = 0.8927	–	2.28 ± 0.05
[1], 288.15 K, x2 = 0.9408	–	2.12 ± 0.04
[1], 298.15 K, x2 = 0.0494	–	6.98 ± 0.14
[1], 298.15 K, x2 = 0.0988	–	6.59 ± 0.13
[1], 298.15 K, x2 = 0.1956	–	5.85 ± 0.12
[1], 298.15 K, x2 = 0.303	–	5.11 ± 0.1
[1], 298.15 K, x2 = 0.3959	–	4.52 ± 0.09
[1], 298.15 K, x2 = 0.4948	–	3.96 ± 0.08
[1], 298.15 K, x2 = 0.6028	–	3.4 ± 0.07
[1], 298.15 K, x2 = 0.7018	–	2.95 ± 0.06
[1], 298.15 K, x2 = 0.7937	–	2.59 ± 0.05
[1], 298.15 K, x2 = 0.891	–	2.25 ± 0.05
[1], 298.15 K, x2 = 0.9419	–	2.09 ± 0.04
[1], 308.15 K, x2 = 0.0494	–	6.73 ± 0.13
[1], 308.15 K, x2 = 0.0981	–	6.35 ± 0.13
[1], 308.15 K, x2 = 0.1993	–	5.62 ± 0.11
[1], 308.15 K, x2 = 0.3025	–	4.94 ± 0.1
[1], 308.15 K, x2 = 0.3951	–	4.39 ± 0.09
[1], 308.15 K, x2 = 0.4936	–	3.86 ± 0.08
[1], 308.15 K, x2 = 0.5951	–	3.36 ± 0.07
[1], 308.15 K, x2 = 0.7021	–	2.89 ± 0.06
[1], 308.15 K, x2 = 0.7993	–	2.53 ± 0.05
[1], 308.15 K, x2 = 0.8953	–	2.21 ± 0.04
[1], 308.15 K, x2 = 0.9472	–	2.06 ± 0.04
[2], 288.15 K, x2 = 0.0482	935.46 ± 0.23	–
[2], 288.15 K, x2 = 0.0986	921.11 ± 0.24	–
[2], 288.15 K, x2 = 0.1969	893.54 ± 0.24	–
[2], 288.15 K, x2 = 0.3042	864.14 ± 0.25	–
[2], 288.15 K, x2 = 0.4054	836.87 ± 0.26	–
[2], 288.15 K, x2 = 0.5047	810.62 ± 0.27	–
[2], 288.15 K, x2 = 0.6049	784.64 ± 0.27	–
[2], 288.15 K, x2 = 0.6982	760.9 ± 0.28	–
[2], 288.15 K, x2 = 0.788	738.48 ± 0.29	–
[2], 288.15 K, x2 = 0.8899	713.78 ± 0.3	–
[2], 288.15 K, x2 = 0.9452	700.73 ± 0.3	–
[2], 298.15 K, x2 = 0.0484	925.56 ± 0.23	–
[2], 298.15 K, x2 = 0.1001	910.8 ± 0.24	–
[2], 298.15 K, x2 = 0.1957	884.11 ± 0.24	–
[2], 298.15 K, x2 = 0.2887	858.66 ± 0.25	–
[2], 298.15 K, x2 = 0.4049	827.49 ± 0.26	–
[2], 298.15 K, x2 = 0.4975	803.13 ± 0.27	–
[2], 298.15 K, x2 = 0.5939	778.25 ± 0.27	–
[2], 298.15 K, x2 = 0.6925	753.3 ± 0.28	–
[2], 298.15 K, x2 = 0.7931	728.38 ± 0.29	–
[2], 298.15 K, x2 = 0.8988	703 ± 0.3	–
[2], 298.15 K, x2 = 0.9481	691.49 ± 0.3	–
[2], 308.15 K, x2 = 0.0482	915.56 ± 0.23	–
[2], 308.15 K, x2 = 0.098	901.53 ± 0.24	–
[2], 308.15 K, x2 = 0.1961	874.29 ± 0.24	–
[2], 308.15 K, x2 = 0.3036	845.06 ± 0.25	–
[2], 308.15 K, x2 = 0.3981	819.81 ± 0.26	–
[2], 308.15 K, x2 = 0.4994	793.28 ± 0.27	–
[2], 308.15 K, x2 = 0.599	767.73 ± 0.28	–
[2], 308.15 K, x2 = 0.6963	743.26 ± 0.28	–
[2], 308.15 K, x2 = 0.7844	721.56 ± 0.29	–
[2], 308.15 K, x2 = 0.8841	697.7 ± 0.3	–
[2], 308.15 K, x2 = 0.9372	685.34 ± 0.3	–
[2], 308.15 K, x2 = 0.9738	676.94 ± 0.31	–

CCCCCCC [heptane]
Details	mass density, 288.15 K [kg/m3]	mass density, 298.15 K [kg/m3]	mass density, 308.15 K [kg/m3]	relative permittivity at zero frequency, 288.15 K	relative permittivity at zero frequency, 298.15 K	relative permittivity at zero frequency, 308.15 K
[3]	688.03 ± 0.3	679.58 ± 0.31	671.03 ± 0.31	–	–	–
[4]	–	–	–	1.94 ± 0.04	1.93 ± 0.04	1.92 ± 0.04

COCCOCCOCCOC [2,5,8,11-tetraoxadodecane]
Details	mass density, 288.15 K [kg/m3]	mass density, 298.15 K [kg/m3]	mass density, 308.15 K [kg/m3]	relative permittivity at zero frequency, 288.15 K	relative permittivity at zero frequency, 298.15 K	relative permittivity at zero frequency, 308.15 K
[3]	990.08 ± 0.29	980.58 ± 0.29	971.07 ± 0.29	–	–	–
[4]	–	–	–	7.89 ± 0.16	7.63 ± 0.15	7.38 ± 0.15

COCCOCCOC [2,5,8-trioxanonane]
Details	mass density, 288.15 K [kg/m3]	mass density, 298.15 K [kg/m3]	mass density, 308.15 K [kg/m3]	relative permittivity at zero frequency, 288.15 K	relative permittivity at zero frequency, 298.15 K	relative permittivity at zero frequency, 308.15 K
[3]	949.34 ± 0.22	939.35 ± 0.22	929.36 ± 0.22	–	–	–
[4]	–	–	–	7.69 ± 0.15	7.4 ± 0.15	7.12 ± 0.14

COCCOC [1,2-dimethoxyethane] + CCCCCCC
Details	mass density [kg/m3]	relative permittivity at zero frequency
[1], 288.15 K, x2 = 0.1012	–	6.32 ± 0.13
[1], 288.15 K, x2 = 0.2002	–	5.43 ± 0.11
[1], 288.15 K, x2 = 0.3003	–	4.69 ± 0.09
[1], 288.15 K, x2 = 0.3997	–	4.07 ± 0.08
[1], 288.15 K, x2 = 0.5024	–	3.52 ± 0.07
[1], 288.15 K, x2 = 0.6016	–	3.07 ± 0.06
[1], 288.15 K, x2 = 0.7002	–	2.72 ± 0.05
[1], 288.15 K, x2 = 0.7979	–	2.42 ± 0.05
[1], 288.15 K, x2 = 0.9022	–	2.15 ± 0.04
[1], 288.15 K, x2 = 0.9511	–	2.04 ± 0.04
[1], 298.15 K, x2 = 0.1013	–	6.04 ± 0.12
[1], 298.15 K, x2 = 0.2013	–	5.2 ± 0.1
[1], 298.15 K, x2 = 0.3011	–	4.5 ± 0.09
[1], 298.15 K, x2 = 0.3992	–	3.92 ± 0.08
[1], 298.15 K, x2 = 0.503	–	3.41 ± 0.07
[1], 298.15 K, x2 = 0.6035	–	3 ± 0.06
[1], 298.15 K, x2 = 0.7028	–	2.67 ± 0.05
[1], 298.15 K, x2 = 0.7982	–	2.38 ± 0.05
[1], 298.15 K, x2 = 0.902	–	2.13 ± 0.04
[1], 298.15 K, x2 = 0.9497	–	2.03 ± 0.04
[1], 308.15 K, x2 = 0.0493	–	6.26 ± 0.13
[1], 308.15 K, x2 = 0.1001	–	5.79 ± 0.12
[1], 308.15 K, x2 = 0.2005	–	4.99 ± 0.1
[1], 308.15 K, x2 = 0.3016	–	4.34 ± 0.09
[1], 308.15 K, x2 = 0.399	–	3.8 ± 0.08
[1], 308.15 K, x2 = 0.5009	–	3.32 ± 0.07
[1], 308.15 K, x2 = 0.603	–	2.93 ± 0.06
[1], 308.15 K, x2 = 0.7028	–	2.6 ± 0.05
[1], 308.15 K, x2 = 0.802	–	2.33 ± 0.05
[1], 308.15 K, x2 = 0.8974	–	2.11 ± 0.04
[1], 308.15 K, x2 = 0.9505	–	2.01 ± 0.04
[2], 288.15 K, x2 = 0.0495	857.82 ± 0.23	–
[2], 288.15 K, x2 = 0.0995	844.28 ± 0.23	–
[2], 288.15 K, x2 = 0.2045	818.14 ± 0.23	–
[2], 288.15 K, x2 = 0.2979	797.21 ± 0.24	–
[2], 288.15 K, x2 = 0.403	775.91 ± 0.25	–
[2], 288.15 K, x2 = 0.5042	757.33 ± 0.25	–
[2], 288.15 K, x2 = 0.5998	741.27 ± 0.26	–
[2], 288.15 K, x2 = 0.7021	725.61 ± 0.27	–
[2], 288.15 K, x2 = 0.8053	711.33 ± 0.28	–
[2], 288.15 K, x2 = 0.8998	699.44 ± 0.29	–
[2], 288.15 K, x2 = 0.9508	693.43 ± 0.3	–
[2], 298.15 K, x2 = 0.0503	846.65 ± 0.23	–
[2], 298.15 K, x2 = 0.0974	834.02 ± 0.23	–
[2], 298.15 K, x2 = 0.2008	808.4 ± 0.23	–
[2], 298.15 K, x2 = 0.2994	786.5 ± 0.24	–
[2], 298.15 K, x2 = 0.401	766.2 ± 0.25	–
[2], 298.15 K, x2 = 0.5026	747.97 ± 0.25	–
[2], 298.15 K, x2 = 0.5967	732.41 ± 0.26	–
[2], 298.15 K, x2 = 0.6994	716.96 ± 0.27	–
[2], 298.15 K, x2 = 0.8019	702.94 ± 0.28	–
[2], 298.15 K, x2 = 0.9009	690.67 ± 0.29	–
[2], 298.15 K, x2 = 0.9509	684.9 ± 0.3	–
[2], 308.15 K, x2 = 0.0496	836.12 ± 0.23	–
[2], 308.15 K, x2 = 0.0998	822.77 ± 0.23	–
[2], 308.15 K, x2 = 0.2009	798.1 ± 0.24	–
[2], 308.15 K, x2 = 0.3035	775.66 ± 0.24	–
[2], 308.15 K, x2 = 0.4011	756.35 ± 0.25	–
[2], 308.15 K, x2 = 0.5021	738.24 ± 0.26	–
[2], 308.15 K, x2 = 0.6	722.36 ± 0.26	–
[2], 308.15 K, x2 = 0.7018	707.33 ± 0.27	–
[2], 308.15 K, x2 = 0.8036	693.71 ± 0.28	–
[2], 308.15 K, x2 = 0.9014	681.82 ± 0.29	–
[2], 308.15 K, x2 = 0.9519	676.15 ± 0.3	–

COCCOC [1,2-dimethoxyethane]
Details	mass density, 288.15 K [kg/m3]	mass density, 298.15 K [kg/m3]	mass density, 308.15 K [kg/m3]	relative permittivity at zero frequency, 288.15 K	relative permittivity at zero frequency, 298.15 K	relative permittivity at zero frequency, 308.15 K
[3]	872.05 ± 0.22	861.14 ± 0.22	850.06 ± 0.22	–	–	–
[4]	–	–	–	7.41 ± 0.15	7.07 ± 0.14	6.75 ± 0.14
